From patent US5185149A, “Methods for thrombolytic therapy” (Merck & Co., Inc., priority 1990, dated 1993)

System: blood clots (whole blood or plasma clot labelled with 125I-fibrinogen)
Assay: in vitro clot lysis assay (release of 125I-fibrin-derived fragments, TPA-initiated lysis)
Assay type: biochemical
Details: buffer pH 7.5
Protocol: In the assay, whole blood or plasma is charged with ^125 I-fibrinogen Thrombin is added to initiate clot formation and subsequently incubated for 2 hours to complete the cross-linking by endogenous Factor XIII. Factor XIIIa inhibitor is added prior to clot initiation or at various times during the 2-hour incubation. At the end of this period, the labelled clot is washed and lysis is initiated by exogenous tissue plasminogen activator (TPA). Exogenous plasminogen is employed in some experiments Endogenous plasminogen is used for others. Clot dissolution as a function of time is monitored by the release of solubilized ^125 I-fibrin-derived fragments.
In FIGS. 1 and 2, the open symbols indicate absence of cerulenin and the closed symbols indicate the presence of 200μM cerulenin at the time of clot formation. Clot lysis is conducted in buffer, pH 7.5; 5 ng/mL TPA represents approximate physiologic concentration. 50 to […] represents pharmacologic concentration range. […] FIG. 2 studies employed glu-plasminogen levels at approximately 10 percent physiologic level ([…]).

C/C=C/C/C=C/CCC(=O)[C@H]1O[C@H]1C(N)=O [Cerulenin, 3-(1-oxo-4,7-nonadienyl)-oxiranecarboxamide]
rates and extents of clot lysis (200μM inhibitor at clot formation, no exogenous plasminogen, TPA at physiological and pharmacological levels, FIG. 1): enhanced rates and extents of lysis
rate of TPA catalyzed clot lysis (200μM inhibitor, 12μg/mL exogenous glu-plasminogen, TPA, FIG. 2): lysis rates were further enhanced
